Results: patent US20260158056A1, “USE OF LOW MOLECULAR WEIGHT HYALURONIC ACID FOR THE TREATMENT OF LUNG MUCOSAL INFLAMMATION” (INSTITUT NATIONAL DE LA SANTÉ ET DE LA RECHERCHE MÉDICALE, priority 2021, published 2026)

Tested on: IL-8 secreted by F508del/F508del CF human airway epithelial cells
Experiment: IL-8 ELISA, CF airway epithelial cells cultured at the air-liquid interface (ALI), treatment during regeneration and differentiation
Type: cell-based
Experimental: FIG. 1: Measurement by ELISA assay of the pro-inflammatory chemokine IL-8 secreted by F508del/F508del CF human airway epithelial cells cultured at the air-liquid interface (ALI). Airway epithelial cells were seeded in bi-compartmental chambers and cultured in liquid-liquid condition until confluence was reached. At confluence, culture medium from the upper chamber was removed to create an air-liquid interface (ALI) that will favor epithelial cell differentiation. From the ALI creation, the different treatments (15-45 kDa sodium-hyaluronic acid (HA-Na 15-45 kDa) (ARD—Pomacle—France—as prepared according to WO2004050187), 15-30 kDa sodium-hyaluronic acid (HA-Na 15-30 kDa) (Sigma Aldrich) or 30-50 kDa sodium-hyaluronic acid (HA-Na 30-50 kDa) (Sigma Aldrich) were added at 1 mg/mL to the culture medium in the basal chamber. The culture medium was renewed three times a week. At ALI day 15, the culture medium was replaced by fresh medium without any treatment. After a 4 h-period, this culture medium was collected and the IL-8 content was determined by ELISA assay. n=5 different F508del/F508del CF patients. p<0.001 (***); p<0.01 (**); p<0.05 (*). ns: non-significant.
FIG. 4: Measurement by ELISA assay of the pro-inflammatory chemokine IL-8 secreted by F508del/F508del CF human airway epithelial cells cultured at the air-liquid interface (ALI). Airway epithelial cells were seeded in bi-compartmental chambers and cultured in liquid-liquid condition until confluence was reached. At confluence, culture medium from the upper chamber was removed to create an air-liquid interface (ALI) that will favor epithelial cell differentiation. From the ALI creation, the different treatments (15-45 kDa sodium-hyaluronic acid (HA-Na 15-45 kDa) (ARD—Pomacle—France—as prepared according to WO2004050187), 15-45 kDa calcium-hyaluronic acid (HA-Ca 15-45 kDa; ARD), or 15-45 kDa potassium-hyaluronic acid (HA-K 15-45 kDa; ARD) were added at 1 mg/mL to the culture medium in the basal chamber. The culture medium was renewed three times a week. At ALI day 15, the culture medium was replaced by fresh medium without any treatment. After a 4 h-period, this culture medium was collected and the IL-8 content was determined by ELISA assay. n=4 different F508del/F508del CF patients. p<0.001 (***); p<0.01 (**); p<0.05 (*). ns: Non-significant.
FIG. 7: Measurement by ELISA assay of the pro-inflammatory chemokine IL-8 secreted by F508del/F508del CF human airway epithelial cells cultured at the air-liquid interface (ALI). Airway epithelial cells were seeded in bi-compartmental chambers and cultured in liquid-liquid condition until confluence was reached. At confluence, culture medium from the upper chamber was removed to create an air-liquid interface (ALI) that will favor epithelial cell differentiation. From the ALI creation, 15-45 kDa sodium-hyaluronic acid (HA-Na 15-45 kDa) (ARD—Pomacle—France—as prepared according to WO2004050187) was added at 0.1 mg/mL, 0.5 mg/mL, 1 mg/mL and 2 mg/mL to the culture medium in the basal chamber. The culture medium was renewed three times a week. At ALI day 15, the culture medium was replaced by fresh medium without any treatment. After a 4 h-period, this culture medium was collected and the IL-8 content was determined by ELISA assay. n=3 different F508del/F508del CF patients. p<0.001 (***); p<0.01 (**); p<0.05 (*). ns: non-significant.

[1] = FIG. 1, 1 mg/mL from ALI creation, ALI day 15, vs control condition, n=5 CF patients
[2] = FIG. 4, 1 mg/mL from ALI creation, ALI day 15, vs control condition, n=4 CF patients

Substance	decrease in IL-8 secretion [1]	decrease in IL-8 secretion [2]	decrease in IL-8 secretion (FIG. 7, 0.1 mg/mL, ALI day 15, n=3 CF patients)	decrease in IL-8 secretion (FIG. 7, 0.5 mg/mL, ALI day 15, n=3 CF patients)	decrease in IL-8 secretion (FIG. 7, 1 mg/mL, ALI day 15, n=3 CF patients)	decrease in IL-8 secretion (FIG. 7, 2 mg/mL, ALI day 15, n=3 CF patients)
15-30 kDa sodium-hyaluronic acid [HA-Na 15-30 kDa]	57%	–	–	–	–	–
15-45 kDa calcium-hyaluronic acid [HA-Ca 15-45 kDa]	–	59.25%	–	–	–	–
15-45 kDa sodium-hyaluronic acid [HA-Na 15-45 kDa]	52%	55.5%	does not have anymore effect	47.3%	62%	65%
30-50 kDa sodium-hyaluronic acid [HA-Na 30-50 kDa]	67.2%	–	–	–	–	–
